In BigSolDB 2.1:

O=C1CCCCCCCCCCC1
solubility (mole fraction)
Conditions	278.15 K	283.15 K	288.15 K	293.15 K	298.15 K	303.15 K	308.15 K	313.15 K
in 1,2-dichloroethane	0.366	0.394	0.441	0.459	0.511	0.549	0.604	0.657
in acetone	0.142	0.184	0.229	0.285	0.362	0.432	0.517	0.618
in acetonitrile	0.0485	0.0711	0.104	0.16	0.225	0.322	0.466	0.637
in cyclohexane	–	0.21	0.263	0.308	0.366	0.441	0.515	0.598
in ethanol	0.0472	0.0701	0.0949	0.127	0.183	0.243	0.348	0.461
in ethyl acetate	0.195	0.235	0.286	0.345	0.407	0.477	0.553	0.615
in isobutanol	0.0949	0.121	0.158	0.202	0.261	0.331	0.424	0.54
in isopropanol	0.0967	0.122	0.155	0.2	0.262	0.341	0.445	0.55
in methanol	0.0155	0.0267	0.04	0.0679	0.108	0.166	0.272	0.399
in n-butanol	0.0988	0.125	0.164	0.204	0.258	0.327	0.415	0.527
in n-propanol	0.118	0.144	0.182	0.228	0.293	0.37	0.467	0.567
in toluene	0.33	0.378	0.41	0.454	0.501	0.553	0.607	0.675
